Consider 36 compounds from patent US8778951B2, “Heteroaryl compounds and their uses” (Novartis AG, priority 2009, dated 2014).

Each structure is given as a SMILES string. pIC50: −log10 of the molar value.

For the experiment, the target named is Cdk9/cyclinT1 (Homo sapiens (Human), UniProt P50750). The experiment can be described thus: Cdk9/CyclinT1 IMAP Protocol (fluorescence polarization kinase assay). It counts as biochemical. The note with it: Table 2; generated using one of the two Cdk9/cyclinT1 assays (IMAP or Alpha Screen), not specified which; unit inferred. The method, boiled down: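 Reaction used 4 nM Cdk9/cyclinT1, 100 nM 5TAMRA-cdk7tide peptide and 6 uM ATP in 100 mM Tris pH 7.2 with MgCl2, 0.01% Tween-20, 1 mM DTT and 2.5% DMSO, running 4.5 h. Phosphopeptide was captured by IMAP binding reagent for >1 h, then read by fluorescence polarization (ex 531/em 595 nm).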
Sequence of Cdk9/cyclinT1 (P50750 whole entry): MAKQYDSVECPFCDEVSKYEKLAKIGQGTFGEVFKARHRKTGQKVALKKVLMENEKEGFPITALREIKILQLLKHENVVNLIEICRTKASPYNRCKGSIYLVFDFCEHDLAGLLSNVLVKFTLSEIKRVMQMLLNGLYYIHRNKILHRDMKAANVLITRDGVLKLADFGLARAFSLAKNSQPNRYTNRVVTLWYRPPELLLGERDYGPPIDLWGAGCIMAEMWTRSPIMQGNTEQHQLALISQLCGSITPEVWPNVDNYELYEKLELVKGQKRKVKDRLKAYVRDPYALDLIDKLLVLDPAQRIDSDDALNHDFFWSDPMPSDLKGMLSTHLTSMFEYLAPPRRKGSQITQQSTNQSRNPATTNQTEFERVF
Sequence of Cdk9/cyclinT1 (O60563 whole entry partner): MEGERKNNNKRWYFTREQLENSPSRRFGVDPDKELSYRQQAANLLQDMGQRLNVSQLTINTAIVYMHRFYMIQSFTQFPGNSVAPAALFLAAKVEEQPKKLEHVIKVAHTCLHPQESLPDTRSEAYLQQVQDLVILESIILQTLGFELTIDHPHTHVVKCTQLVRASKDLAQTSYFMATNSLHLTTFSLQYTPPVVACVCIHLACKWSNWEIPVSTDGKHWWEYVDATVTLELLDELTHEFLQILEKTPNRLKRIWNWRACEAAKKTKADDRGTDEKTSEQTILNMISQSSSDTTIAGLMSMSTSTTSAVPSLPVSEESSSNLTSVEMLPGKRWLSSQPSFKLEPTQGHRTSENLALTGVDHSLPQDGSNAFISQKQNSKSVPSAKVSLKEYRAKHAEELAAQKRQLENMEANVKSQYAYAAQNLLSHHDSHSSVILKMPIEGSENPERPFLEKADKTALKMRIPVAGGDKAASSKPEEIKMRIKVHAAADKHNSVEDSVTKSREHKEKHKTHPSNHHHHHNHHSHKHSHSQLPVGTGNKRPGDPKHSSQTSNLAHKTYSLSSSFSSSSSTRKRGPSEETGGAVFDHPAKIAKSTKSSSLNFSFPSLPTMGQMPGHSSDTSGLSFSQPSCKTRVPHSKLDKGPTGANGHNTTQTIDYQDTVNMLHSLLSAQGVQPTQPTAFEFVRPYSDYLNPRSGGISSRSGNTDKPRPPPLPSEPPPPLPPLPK
On the technique in general: Fluorescence polarisation rises when a labelled molecule tumbles more slowly, as on binding a larger partner.
By pIC50 is commonly meant the negative decadic logarithm of the IC50, by convention in mol/L. A high value points to a small IC50. Compound `Nc1cc(-c2cccc(NCc3cccc(F)c3)n2)c(Cl)cn1` [Compound 179] showed a pIC50 of 6.26.

With `COc1cnc(N[C@H]2CC[C@H](N)CC2)cc1-c1cccc(NCc2cccc(F)c2)n1` [Compound 180, N2′-(trans-4-aminocyclohexyl)-N6-(3-fluorobenzyl)-5′-methoxy-2,4′-bipyridine-2′,6-diamine], the pIC50 was 7.92. `OC[C@H]1CC[C@H](Nc2cc(-c3cccc(NCc4cccc(F)c4)n3)c(Cl)cn2)CC1` [Compound 181] showed a pIC50 of 8.10. This pIC50 and that of the compound before are within 0.2 log units of each other. Take `O[C@H]1CC[C@@H](Nc2cc(-c3cccc(NCc4cccc(F)c4)n3)c(Cl)cn2)CC1` [Compound 182]: the pIC50 is 7.68. This pIC50 is 0.42 log units lower than that of the compound before. Compound `O[C@H]1CC[C@@H](Nc2cc(-c3cccc(NCc4cccc(F)c4)n3)c(Cl)cn2)C1` [Compound 183] gave a negative logarithm of the IC50 (pIC50) of 8.10. With `O[C@@H]1CC[C@H](Nc2cc(-c3cccc(NCc4cccc(F)c4)n3)c(Cl)cn2)C1` [Compound 184], the pIC50 is 8.04. This pIC50 and that of the compound before are within 0.2 log units of each other. The value for `OCCCCNc1cc(-c2cccc(NCc3cccc(F)c3)n2)c(Cl)cn1` [Compound 186] was 8.10; that for `NCCCCNc1cc(-c2cccc(NCc3cc(F)cc(F)c3)n2)c(Cl)cn1` [Compound 188] was 8.10. `OCCCNc1cc(-c2cccc(NCc3cc(F)cc(F)c3)n2)c(Cl)cn1` [Compound 189] had a pIC50 of 8.10. The compound `COC[C@H]1CC[C@H](Nc2cc(-c3cccc(NCc4cccc(F)c4)n3)c(Cl)cn2)CC1` [Compound 190] gave a pIC50 of 7.00. Compound `N[C@@H]1CC[C@@H](Nc2cc(-c3cccc(NCc4cccc(F)c4)n3)c(Cl)cn2)C1` [Compound 191, N2′-((1R,3R)-3-aminocyclopentyl)-5′-chloro-N6-(3-fluorobenzyl)-2,4′-bipyridine-2′,6-diamine] had a negative-log IC50 (pIC50) of 8.10. `N[C@H]1CC[C@H](Nc2cc(-c3cccc(NCc4cccc(F)c4)n3)c(Cl)cn2)C1` [Compound 192] showed a pIC50 of 8.10. Turning to `COCCN[C@H]1CC[C@H](Nc2cc(-c3cccc(NCc4cc(F)cc(F)c4)n3)c(Cl)cn2)CC1` [Compound 193], the negative-log IC50 (pIC50) was 8.10. Regarding `CO[C@H]1CC[C@H](Nc2cc(-c3cccc(NCc4cccc(F)c4)n3)c(Cl)cn2)CC1` [Compound 194], the negative logarithm of the IC50 (pIC50) is 7.32. This pIC50 is 0.78 log units lower than that of the compound before.

As for `NCC(O)CNc1cc(-c2cccc(NCc3cccc(F)c3)n2)c(Cl)cn1` (stereo not drawn) [Compound 195], the pIC50 is 7.45. In the case of `N[C@H]1CC[C@H](Nc2cc(-c3cccc(NCc4cccc(F)c4)n3)c(F)cn2)CC1` [Compound 197], the pIC50 is 8.10. The value for `CN(C)[C@H]1CC[C@H](Nc2cc(-c3cccc(NCc4cc(F)cc(F)c4)n3)c(Cl)cn2)CC1` [Compound 198] was 8.10; that for `OCCCN[C@H]1CC[C@H](Nc2cc(-c3cccc(NCc4cccc(F)c4)n3)c(Cl)cn2)CC1` [Compound 200] was 8.10.

As for `N[C@H]1CC[C@H](Nc2cc(-c3cncc(NCC4CCOCC4)n3)c(Cl)cn2)CC1` [Compound 203, trans-N1-(5-chloro-4-(6-((tetrahydro-2H-pyran-4-yl)methyl)aminopyrazin-2-yl)pyridin-2-yl)cyclohexane-1,4-diamine], the pIC50 is 8.10. For `CN(C)C(=O)[C@H]1CC[C@@H](Nc2cc(-c3cccc(NCc4cccc(F)c4)n3)c(Cl)cn2)C1` [Compound 205, (1S,3R)-3-(5′-chloro-6-(3-fluorobenzylamino)-2,4′-bipyridin-2′-yl-amino)-N,N-dimethylcyclopentanecarboxamide], the pIC50 was 7.76. For `O[C@H]1CC[C@H](Nc2cc(-c3cncc(NCC4CCOCC4)n3)c(Cl)cn2)CC1` [Compound 208, trans-4-(5-chloro-4-(6-((tetrahydro-2H-pyran-4-yl)methyl)aminopyrazin-2-yl)pyridin-2-yl-amino)cyclohexanol] the value was 8.10; for `CN1CCC(CNc2cc(-c3cncc(NCC4CCOCC4)n3)c(Cl)cn2)CC1` [Compound 209], 6.74; for `OCCNc1cc(-c2cncc(NCC3CCOCC3)n2)c(Cl)cn1` [Compound 210], 7.07.

On to `Cc1cnc(N[C@H]2CC[C@H](N)CC2)cc1-c1cccc(NCc2cccc(F)c2)n1` [Compound 211, N2′-(trans-4-aminocyclohexyl)-N6-(3-fluorobenzyl)-5′-methyl-2,4′-bipyridine-2′,6-diamine], for which the pIC50 is 7.68. For `N[C@H]1CC[C@H](Nc2cc(-c3cccc(N[C@@H]4CC45CCOCC5)n3)c(Cl)cn2)CC1` [Compound 212] the value was 7.26. The value for `O=C([C@H]1CC[C@@H](Nc2cc(-c3cccc(NCc4cccc(F)c4)n3)c(Cl)cn2)C1)N1CCCC1` [Compound 213] was 7.85; that for `CC(=O)N1CCC[C@H](CNc2cccc(-c3cc(N[C@H]4CC[C@H](N)CC4)ncc3Cl)n2)C1` [Compound 215, 1-((R)-3-((2′-(trans-4-aminocyclohexylamino)-5′-chloro-2,4′-bipyridin-6-yl-amino)methyl)piperidin-1-yl)ethanone] was 7.18. `CC(=O)N1CCC[C@H](CNc2cccc(-c3ccnc(N[C@H]4CC[C@H](N)CC4)c3)n2)C1` [Compound 216, 1-((R)-3-((2′-(trans-4-aminocyclohexylamino)-2,4′-bipyridin-6-yl-amino)methyl)piperidin-1-yl)ethanone] had a negative logarithm of the IC50 (pIC50) of 6.86. For `CC(=O)N1CCC[C@@H](CNc2cccc(-c3cc(N[C@H]4CC[C@H](N)CC4)ncc3Cl)n2)C1` [Compound 217] the value was 7.43; for `CC(=O)N1CCC[C@@H](CNc2cccc(-c3ccnc(N[C@H]4CC[C@H](N)CC4)c3)n2)C1` [Compound 218], 6.89.

The compound `N[C@H]1CC[C@H](Nc2cc(-c3cnc(Cl)c(NCC4CCOCC4)n3)c(Cl)cn2)CC1` [Compound 221] showed a negative-log IC50 (pIC50) of 8.10. The value for `O[C@H]1CC[C@H](Nc2cc(-c3cnc(Cl)c(NCC4CCOCC4)n3)c(Cl)cn2)CC1` [Compound 222, trans-4-(5-chloro-4-(5-chloro-6-((tetrahydro-2H-pyran-4-yl)methyl)aminopyrazin-2-yl)pyridin-2-yl-amino)cyclohexanol] was 8.10. In turn, `N[C@H]1CC[C@H](Nc2cc(-c3nc(NCC4CCOCC4)cnc3Cl)c(Cl)cn2)CC1` [Compound 223, trans-N1-(5-chloro-4-(3-chloro-6-((tetrahydro-2H-pyran-4-yl)methyl)aminopyrazin-2-yl)pyridin-2-yl)cyclohexane-1,4-diamine] showed a negative logarithm of the IC50 (pIC50) of 8.10.

`NC(=O)c1ncc(-c2cc(N[C@H]3CC[C@H](N)CC3)ncc2Cl)nc1NCC1CCOCC1` [Compound 224, 5-(2-(trans-4-aminocyclohexylamino)-5-chloropyridin-4-yl)-3-((tetrahydro-2H-pyran-4-yl)methyl)aminopyrazine-2-carboxamide] had a negative-log IC50 (pIC50) of 7.04. Compound `Clc1cnc(N[C@H]2CC[C@H](N3CCCC3)CC2)cc1-c1cnc(Cl)c(NCC2CCOCC2)n1` [Compound 225, 3-chloro-6-(5-chloro-2-(trans-4-(pyrrolidin-1-yl)cyclohexylamino)pyridin-4-yl)-N-((tetrahydro-2H-pyran-4-yl)methyl)pyrazin-2-amine] had a negative-log IC50 (pIC50) of 8.10. Against the preceding compound, the pIC50 is 1.06 log units higher.

`Nc1ncc(-c2cc(N[C@H]3CC[C@H](N)CC3)ncc2Cl)nc1NCC1CCOCC1` [Compound 226, 6-(2-(trans-4-aminocyclohexylamino)-5-chloropyridin-4-yl)-N2-((tetrahydro-2H-pyran-4-yl)methyl)pyrazine-2,3-diamine] gave a negative-log IC50 (pIC50) of 8.10.
